Test results from patent US7803801B2, “Aminopyridine compounds having Syk inhibitory activity” (Japan Tobacco, Inc., priority 2005, dated 2010).
Read-outs that look alike come from different tables or passages of the source.

Molecular target: GST-Syk Full Protein (human) (Homo sapiens, UniProt P43405)
Assay: Syk kinase inhibition test (HTRF method)
Type: biochemical
Details: read-out: sykHTRF ave IC50
Method: Syk Kinase Inhibition Test (HTRF Method)
After the compounds were serially diluted with dimethylsulfoxide (DMSO), 10 μL of those 10-fold diluted with kinase buffer (20 mM HEPES pH 7.0, 10 mM MgCl2, 50 mM NaCl, 1 mM 2-ME, 0.05% BSA) was added to opti-plate HTRF-96 (Packard) (final DMSO concentration: 2%). 20 μL of a substrate solution (kinase buffer as mentioned above containing Syk Specific-Peptide Substrate Biot-EDPDYEWPSA-NH2 (Peptide Laboratory) 625 nM, 250 μM ATP (SIGMA) was added (final substrate concentration 250 nM, 100 μM ATP), and further 20 μL of an enzyme solution (kinase buffer as mentioned above containing GST-Syk Full Protein (human) 16 nM) (final concentration 6.4 nM) was added and the mixture was immediately stirred with a plate shaker to start enzyme reaction. After reacted at room temperature (20 to 25° C.) for 30 minutes, the enzyme reaction was terminated by adding 100 μL/well of a buffer for terminating and detecting the reaction (30 mM HEPES pH 7.0, 150 mM KF, 0.15% BSA, 0.075% Tween-20, 75 mM EDTA) containing HTRF reagent (5 μg/ml XL665-Streptavidin (CIS bio), 170 ng/ml Eu(K)-anti-PhosphoTyrosin, PT-66 (CIS bio)) (final concentration 20 mM HEPES pH 7.0, 100 mM KF, 0.1% BSA, 0.05% Tween-20, 50 mM EDTA). After allowed to stand still at room temperature for 1 hour, inhibitory effect of a compound against Syk kinase enzymatic activity was evaluated by measuring 665/620 fluorescence ratio to excitation light at 337 nm by ARVO (Wallac).

[1] = HTRF, 100 μM ATP, 30 min room temperature, average

Structure (SMILES): Cc1ccnc(Nc2cccc(-c3cnc(N4CCC(C(C)(C)C(=O)O)CC4)s3)n2)c1 [Compound A-18, 2-methyl-2-(1-{5-[6-(4-methylpyridin-2-ylamino)pyridin-2-yl]thiazol-2-yl}piperidin-4-yl)propionic acid]
- IC50 [1]: < 100 nM

Structure (SMILES): Cc1ccnc(Nc2cccc(-c3cnc([C@@H](N)CCCCN)s3)n2)c1 [Compound A-63]
- IC50 [1]: 100 to 1000 nM

Structure (SMILES): Cc1ccnc(Nc2cccc(-c3cnc([C@H](Cc4ccc(OCc5ccccc5)cc4)NC(=O)OC(C)(C)C)s3)n2)c1 [Compound A-85]
- IC50 [1]: > 1000 nM

Structure (SMILES): Cc1ccnc(Nc2cccc(-c3cnc([C@H](CCC(=O)OCc4ccccc4)NC(=O)OC(C)(C)C)s3)n2)c1 [Compound A-96]
- IC50 [1]: > 1000 nM

Structure (SMILES): CCOC(=O)c1nc([C@H](C)NC(=O)OC(C)(C)C)sc1-c1cccc(Nc2cc(C)ccn2)n1 [Compound A-100]
- IC50 [1]: > 1000 nM

Structure (SMILES): CC(=O)N[C@@H](C)c1nc(C(=O)O)c(-c2cccc(Nc3cc(C)ccn3)n2)s1 [Compound A-109]
- IC50 [1]: > 1000 nM

Structure (SMILES): CNC(=O)c1nc([C@H](C)NC(C)=O)sc1-c1cccc(Nc2cc(C)ccn2)n1 [Compound A-118]
- IC50 [1]: > 1000 nM

Structure (SMILES): CON(C)C(=O)c1nc([C@H](C)NC(C)=O)sc1-c1cccc(Nc2cc(C)ccn2)n1 [Compound A-125]
- IC50 [1]: > 1000 nM

Structure (SMILES): Cc1ccnc(Nc2cccc(-c3cnc(CCc4ccc(OCc5ccccc5)cc4)s3)n2)c1 [Compound A-133]
- IC50 [1]: > 1000 nM

Structure (SMILES): COC(=O)c1ccc(CCc2ncc(-c3cccc(Nc4cc(C)ccn4)n3)s2)cc1 [Compound A-149]
- IC50 [1]: > 1000 nM

Structure (SMILES): Cc1ccnc(Nc2cccc(-c3cnc(CCc4cccc(C(=O)N5CCC(O)CC5)c4)s3)n2)c1 [Compound A-281]
- IC50 [1]: 100 to 1000 nM

Structure (SMILES): Cc1cccnc1Nc1cccc(-c2cnc([C@H](C)O)s2)n1 [Compound A-327]
- IC50 [1]: > 1000 nM

Structure (SMILES): CCOC(=O)Cc1ccnc(Nc2cccc(-c3cnc([C@H](C)NC(C)=O)s3)n2)c1 [Compound A-329]
- IC50 [1]: 100 to 1000 nM

Structure (SMILES): Cc1ccnc(Nc2cccc(-c3cnc([C@@H](N)Cc4ccc(O)cc4)s3)n2)c1 [Compound A-389]
- IC50 (Tables 1-x, compounds A): 100 to 1000 nM

Structure (SMILES): Cc1ccnc(Nc2cccc(-c3cnc(N4CCNCC4)s3)n2)c1 [Compound A-406]
- IC50 (Tables 1-x, compounds A): 100 to 1000 nM

Structure (SMILES): CCOC(=O)N1CCC(N(C)c2ncc(-c3cccc(Nc4cc(C)ccn4)n3)s2)CC1 [Compound A-445]
- IC50 (Tables 1-x, compounds A): 100 to 1000 nM

Structure (SMILES): Cc1ccnc(Nc2cccc(-c3cnc(N(C)C4CCC(C(=O)N(C)C)CC4)s3)n2)c1 (stereo not drawn) [Compound A-447]
- IC50 (Tables 1-x, compounds A): 100 to 1000 nM

Structure (SMILES): Cc1ccnc(Nc2cccc(-c3cnc(N4CCC(C(=O)N(C)CCO)CC4)s3)n2)c1 [Compound A-448]
- IC50 (Tables 1-x, compounds A): 100 to 1000 nM

Structure (SMILES): Cc1ccnc(Nc2cccc(-c3cnc(N4CCC(C(=O)N(CCO)CCO)CC4)s3)n2)c1 [Compound A-449]
- IC50 (Tables 1-x, compounds A): 100 to 1000 nM

Structure (SMILES): COCCN(C)C(=O)C1CCN(c2ncc(-c3cccc(Nc4cc(C)ccn4)n3)s2)CC1 [Compound A-451]
- IC50 (Tables 1-x, compounds A): 100 to 1000 nM

Structure (SMILES): Cc1ccnc(Nc2cccc(-c3cnc(N4CCC(C(=O)N5CCNC(=O)C5)CC4)s3)n2)c1 [Compound A-453, 4-(1-{5-[6-(4-methylpyridin-2-ylamino)pyridin-2-yl]thiazol-2-yl}piperidine-4-carbonyl)piperazin-2-one]
- IC50 (Tables 1-x, compounds A): < 100 nM

Structure (SMILES): Cc1ccnc(Nc2cccc(-c3cnc(N4CCC(C(=O)N5CCOCC5)CC4)s3)n2)c1 [Compound A-454]
- IC50 (Tables 1-x, compounds A): 100 to 1000 nM

Structure (SMILES): Cc1ccnc(Nc2cccc(-c3cnc(N4CCC(C(=O)NC(C)(C)CO)CC4)s3)n2)c1 [Compound A-455]
- IC50 (Tables 1-x, compounds A): 100 to 1000 nM

Structure (SMILES): Cc1ccnc(Nc2cccc(-c3cnc(N4CCC(C5=NC(C)(C)CO5)CC4)s3)n2)c1 [Compound A-456]
- IC50 (Tables 1-x, compounds A): 100 to 1000 nM

Structure (SMILES): Cc1ccnc(Nc2cccc(-c3cnc(N(C)Cc4ccc(OCc5ccccc5)cc4)s3)n2)c1 [Compound A-462]
- IC50 (Tables 1-x, compounds A): 100 to 1000 nM

Structure (SMILES): Cc1ccnc(Nc2cccc(-c3cnc(N4CCN(CC(=O)OC(C)(C)C)C(=O)C4)s3)n2)c1 [Compound A-463]
- IC50 (Tables 1-x, compounds A): 100 to 1000 nM

Structure (SMILES): Cc1ccnc(Nc2cccc(-c3cnc(N4CCN(CC(=O)N(C)C)C(=O)C4)s3)n2)c1 [Compound A-467]
- IC50 (Tables 1-x, compounds A): 100 to 1000 nM

Structure (SMILES): Cc1ccnc(Nc2cccc(-c3cnc(N4CCN(CC(=O)NCCO)C(=O)C4)s3)n2)c1 [Compound A-468, N-(2-hydroxyethyl)-2-(4-{5-[6-(4-methylpyridin-2-ylamino)pyridin-2-yl]thiazol-2-yl}-2-oxopiperazin-1-yl)acetamide]
- IC50 (Tables 1-x, compounds A): < 100 nM

Structure (SMILES): COCC1CCCN(c2ncc(-c3cccc(Nc4cc(C)ccn4)n3)s2)C1 (stereo not drawn) [Compound A-481, N-{6-[2-(3-methoxymethylpiperidin-1-yl)thiazol-5-yl]pyridin-2-yl}-N-(4-methylpyridin-2-yl)amine]
- IC50 (Tables 1-x, compounds A): < 100 nM

Structure (SMILES): Cc1ccnc(Nc2cccc(-c3cnc(N4CCC(NS(C)(=O)=O)CC4)s3)n2)c1 [Compound A-484, N-(1-{5-[6-(4-methylpyridin-2-ylamino)pyridin-2-yl]thiazol-2-yl}piperidin-4-yl)methanesulfonamide]
- IC50 (Tables 1-x, compounds A): < 100 nM

Structure (SMILES): Cc1ccnc(Nc2cccc(-c3cnc(N4CCC(N(C)S(C)(=O)=O)CC4)s3)n2)c1 [Compound A-485, N-methyl-N-(1-{5-[6-(4-methylpyridin-2-ylamino)pyridin-2-yl]thiazol-2-yl}piperidin-4-yl)methanesulfonamide]
- IC50 (Tables 1-x, compounds A): < 100 nM

Structure (SMILES): CNC(=O)C(C)(C)NC(=O)C1CCN(c2ncc(-c3cccc(Nc4cc(C)ccn4)n3)s2)CC1 [Compound A-491]
- IC50 (Tables 1-x, compounds A): 100 to 1000 nM

Structure (SMILES): CNC(=O)C1CCC(N(C)c2ncc(-c3cccc(Nc4cc(C)ccn4)n3)s2)CC1 (stereo not drawn) [Compound A-492, N-methyl-4-(N′-methyl-N′-{5-[6-(4-methylpyridin-2-ylamino)pyridin-2-yl]thiazol-2-yl}amino)cyclohexanecarboxamide]
- IC50 (Tables 1-x, compounds A): < 100 nM

Structure (SMILES): Cc1ccnc(Nc2cccc(-c3cnc(N(C)C4CCC(C(=O)NCCO)CC4)s3)n2)c1 (stereo not drawn) [Compound A-493, N-(2-hydroxyethyl)-4(N′-methyl-N′-{5-[6-(4-methylpyridin-2-ylamino)pyridin-2-yl]thiazol-2-yl}amino)cyclohexanecarboxamide]
- IC50 (Tables 1-x, compounds A): < 100 nM

Structure (SMILES): CC(=O)NCCNC(=O)C1CCC(N(C)c2ncc(-c3cccc(Nc4cc(C)ccn4)n3)s2)CC1 (stereo not drawn) [Compound A-494, N-(2-acetylaminoethyl)-4-(N′-methyl-N′-{5-[6-(4-methylpyridin-2-ylamino)pyridin-2-yl]thiazol-2-yl}amino)cyclohexanecarboxamide]
- IC50 (Tables 1-x, compounds A): < 100 nM

Structure (SMILES): Cc1ccnc(Nc2cccc(-c3cnc(N(C)C4CCC(C(=O)N5CCC(O)CC5)CC4)s3)n2)c1 (stereo not drawn) [Compound A-495]
- IC50 (Tables 1-x, compounds A): 100 to 1000 nM

Structure (SMILES): Cc1ccnc(Nc2cccc(-c3cnc(N(C)C4CCC(C(=O)N[C@H]5CC[C@H](O)CC5)CC4)s3)n2)c1 (stereo partly drawn) [Compound A-496]
- IC50 (Tables 1-x, compounds A): 100 to 1000 nM

Structure (SMILES): C=CCN(CC=C)c1ncc(-c2cccc(Nc3cc(C)ccn3)n2)s1 [Compound A-507, N,N-diallyl-N-{5-[6-(4-methylpyridin-2-ylamino)pyridin-2-yl]thiazol-2-yl}amine]
- IC50 (Tables 1-x, compounds A): < 100 nM

Structure (SMILES): Cc1ccnc(Nc2cccc(-c3cnc(N(C)C4CCN(C(=O)N(C)C)CC4)s3)n2)c1 [Compound A-511, N,N-dimethyl-4-(N′-methyl-N′-{5-[6-(4-methylpyridin-2-ylamino)pyridin-2-yl]thiazol-2-yl}amino)piperidine-1-carboxamide]
- IC50 (Tables 1-x, compounds A): < 100 nM

Structure (SMILES): Cc1ccnc(Nc2cccc(-c3cnc(N(C)C4CCN(C(=O)C5CC5)CC4)s3)n2)c1 [Compound A-512]
- IC50 (Tables 1-x, compounds A): 100 to 1000 nM

Structure (SMILES): CC(=O)NCCN(c1ncc(-c2cccc(Nc3cc(C)ccn3)n2)s1)C1CCN(C(C)=O)CC1 [Compound A-521]
- IC50 (Tables 1-x, compounds A): 100 to 1000 nM

Structure (SMILES): COC(=O)NCCN(c1ncc(-c2cccc(Nc3cc(C)ccn3)n2)s1)C1CCN(C(C)=O)CC1 [Compound A-522]
- IC50 (Tables 1-x, compounds A): 100 to 1000 nM

Structure (SMILES): CC(=O)N1CCC(N(CCNC(=O)N(C)C)c2ncc(-c3cccc(Nc4cc(C)ccn4)n3)s2)CC1 [Compound A-523]
- IC50 (Tables 1-x, compounds A): 100 to 1000 nM

Structure (SMILES): Cc1ccnc(Nc2cccc(-c3cnc(N4CCC[C@H]4C(=O)O)s3)n2)c1 [Compound A-527]
- IC50 (Tables 1-x, compounds A): 100 to 1000 nM

Structure (SMILES): CN(CCO)c1ncc(-c2cccc(Nc3cc(CC(=O)O)ccn3)n2)s1 [Compound A-550]
- IC50 (Tables 1-x, compounds A): 100 to 1000 nM

Structure (SMILES): Cc1ccnc(Nc2cccc(-c3cnc(N(C)CC(=O)O)s3)n2)c1 [Compound A-555]
- IC50 (Tables 1-x, compounds A): 100 to 1000 nM

Structure (SMILES): O=C(O)Cc1ccnc(Nc2cccc(-c3cnc(N4CC[C@@H](O)C4)s3)n2)c1 [Compound A-557]
- IC50 (Tables 1-x, compounds A): 100 to 1000 nM

Structure (SMILES): NC(=O)[C@@H]1CCCN1c1ncc(-c2cccc(Nc3cc(CC(=O)O)ccn3)n2)s1 [Compound A-559]
- IC50 (Tables 1-x, compounds A): 100 to 1000 nM

Structure (SMILES): Cc1ccnc(Nc2cccc(-c3cnc(N4CCC[C@H]4C(=O)N[C@@H](C)C(=O)O)s3)n2)c1 [Compound A-566]
- IC50 (Tables 1-x, compounds A): 100 to 1000 nM

Structure (SMILES): Cc1ccnc(Nc2cccc(-c3cnc(N4C[C@H](O)C[C@H]4C(=O)O)s3)n2)c1 [Compound A-569]
- IC50 (Tables 1-x, compounds A): 100 to 1000 nM

Structure (SMILES): COC(=O)c1cccc(CN(C)c2ncc(-c3cccc(Nc4cc(C)ccn4)n3)s2)c1 [Compound A-581]
- IC50 (Tables 1-x, compounds A): 100 to 1000 nM

Structure (SMILES): COC(=O)N(CC(=O)O)Cc1ncc(-c2cccc(Nc3cc(C)ccn3)n2)s1 [Compound A-583]
- IC50 (Tables 1-x, compounds A): 100 to 1000 nM

Structure (SMILES): COC(=O)N(CCC(=O)O)Cc1ncc(-c2cccc(Nc3cc(C)ccn3)n2)s1 [Compound A-584]
- IC50 (Tables 1-x, compounds A): 100 to 1000 nM

Structure (SMILES): COC(=O)N(CCCC(=O)O)Cc1ncc(-c2cccc(Nc3cc(C)ccn3)n2)s1 [Compound A-585]
- IC50 (Tables 1-x, compounds A): 100 to 1000 nM
